In publication PMC11111035, “Lemon basil seed-derived peptide: Hydrolysis, purification, and its role as a pancreatic lipase inhibitor that reduces adipogenesis by downregulating SREBP-1c and PPAR-γ in 3T3-L1 adipocytes” (PLOS ONE, 2024):
Ends that are not written are not given here.

How the values were obtained:
lipase = conditions: cited from earlier work
Protocol: The Lineweaver-Burk plot was used to evaluated the inhibition mode of the […] peptide obtained from DLSH, and the outcome can be observed in Fig 6(A) (S6 Table). The plot of the inhibition activity was created by altering the concentration of the substrate while maintaining the peptide concentration at the same level throughout (0, 0.1, 0.3 and 0.5 mM). […] The peptide accordingly acted as a lipase inhibitor by taking the form o ...

3T3-L1 cells [1] = conditions: cited from earlier work
Description: Although we believe there have been no previous studies detailing the […] peptide, it can be considered as a suitable novel peptide capable of addressing the problem of obesity. The literature does contain references to peptides which act in a similar manner to affect preadipocytes during their initial proliferation. […] It was noted by Zhang et al. that th ...

3T3-L1 adipocytes = test: Intracellular lipid accumulation, Oil Red O staining; assay type: cell-based; conditions: simvastatin 10 μM (S); % of differentiated model (100%); mean ± SE
Protocol: On the first day, a modified assay proposed by Zhang et al. was carried out for the purpose of 3T3-L1 cells cell culture and differentiation, by initially seeding the 3T3-L1 preadipocyte cells in 6-well plates with a density of 1×10^5 cells per well and then culturing in DMEM with 10% FBS at a temperature of 37°C for 24 h in an atmosphere of 5% carbon dioxide. On the second day, adipocyte differentiation was performed by treating the 3T3-L1 cells with a differentiation medium comprising DMEM with 10% FBS, mixed with 0.5 mM 3-isobutyl-1-methylxanthine (IBMX), 1 μM dexamethasone, and 10 μg/mL insulin. This process took three days, whereupon on day 5 the original medium was removed and a new insulin medium, comprising DMEM with 10% FBS and 10 μg/mL insulin, was used to maintain adipocyte characteristics with a 3-day incubation period. […] Oil Red O staining was then used to evaluate the intracellular lipid accumulation of the mature 3T3-L1 adipocytes. This process required the cells to first be rinsed in PBS and then fixed for 1 h at room temperature with 10% formalin. […] It was then possible to evaluate the accumulation of lipids by dissolving in isopropanol (100%), and to measure the absorbance at 540 nm. The lipid accumulation was expressed as a percentage in comparison to the control.

AMPK-α = test: Western blot AMPK-α expression; assay type: cell-based; conditions: GRSPDTHSG 0.25-1 mM or simvastatin 10 μM
Protocol: On the first day, a modified assay proposed by Zhang et al. was carried out for the purpose of 3T3-L1 cells cell culture and differentiation, by initially seeding the 3T3-L1 preadipocyte cells in 6-well plates with a density of 1×10^5 cells per well and then culturing in DMEM with 10% FBS at a temperature of 37°C for 24 h in an atmosphere of 5% carbon dioxide. On the second day, adipocyte differentiation was performed by treating the 3T3-L1 cells with a differentiation medium comprising DMEM with 10% FBS, mixed with 0.5 mM 3-isobutyl-1-methylxanthine (IBMX), 1 μM dexamethasone, and 10 μg/mL insulin. This process took three days, whereupon on day 5 the original medium was removed and a new insulin medium, comprising DMEM with 10% FBS and 10 μg/mL insulin, was used to maintain adipocyte characteristics with a 3-day incubation period. […] Once extracted, the proteins of equivalent concentration underwent separation on 12% sodium dodecyl sulfate-polyacrylamide gel electrophoresis (SDS-PAGE) before moving to polyvinylidene fluoride (PVDF) membranes (Millipore, Bedford, MA, USA). […] The membranes were then incubated overnight at a temperature of 4°C with the primary antibodies (PPAR-γ, AMPK-α, SREBP-1C and β-actin) diluted at 1:1000. […] The band intensity could then be measured using ImageJ software (version 1.53; National Institutes of Health, MD, USA). […]

[2] = target: T1, porcine pancreatic lipase (Sus scrofa, UniProt P00591); test: Lipase inhibitory activity (LI), pNPP substrate; assay type: biochemical; conditions: synthetic peptide, pH 7.0, 37°C, 30 min
T1 sequence (P00591 1-450): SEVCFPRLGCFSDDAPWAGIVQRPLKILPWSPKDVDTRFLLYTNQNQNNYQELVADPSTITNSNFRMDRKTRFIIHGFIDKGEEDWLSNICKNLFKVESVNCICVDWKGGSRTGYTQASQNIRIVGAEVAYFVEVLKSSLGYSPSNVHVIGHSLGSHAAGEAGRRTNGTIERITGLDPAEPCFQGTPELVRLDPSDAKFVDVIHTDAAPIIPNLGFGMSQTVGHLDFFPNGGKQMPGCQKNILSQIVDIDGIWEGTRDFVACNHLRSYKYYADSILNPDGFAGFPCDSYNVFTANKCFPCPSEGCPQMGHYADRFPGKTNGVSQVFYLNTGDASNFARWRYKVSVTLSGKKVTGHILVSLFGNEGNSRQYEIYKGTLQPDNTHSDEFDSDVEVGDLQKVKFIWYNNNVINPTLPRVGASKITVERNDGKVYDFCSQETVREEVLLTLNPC
Protocol: (§1) The determination of lipase inhibition was performed using a method with slight modifications as described by Ketprayoon et al.. The p-nitrophenyl palmitate (pNPP) was served as the substrate, with a solution containing 30 mg of pNPP dissolved in 10 mL of isopropanol. This pNPP solution was then emulsified by combining it with 90 mL of 50 mM Tris-HCl at pH 7.0, 20 μL of Triton X-100 and 100 mg of gum arabic. The assay was initiate the assay by incubating the porcine pancreatic lipase (0.5 mg/mL in 50 mM Tris‐HCl buffer, pH 7.0), pNPP solution and DLSH peptides at a temperature of 37°C for 30 min. Absorbance was then measured at 410 nm for p-nitrophenol with Orlistat employed as the positive control. […] LI=AN−AP×100/AN (3) in which AN indicates the absorbance of the negative control in the absence of the peptide, whereas AP indicates the absorbance of activity when the peptide is present.

[3] = target: T1, porcine pancreatic lipase; test: Kinetic study of lipase inhibition (Lineweaver-Burk, Dixon plot); assay type: biochemical; conditions: non-competitive, pNPP, 37°C, pH 7.0, 30 min, mean ± SE (n = 3), read-out: Inhibition constant (Ki)
Protocol: as §1
The inhibitory mechanism of the lipase inhibitor was investigated using the Lineweaver-Burk plot. […] The reaction mixtures were incubated under a temperature of 37°C and pH 7.0 for 30 min, while initial velocity rates were determined at different substrate concentrations (0.1, 0.2, 0.3, 0.4, and 0.5 mM). […] The Michaelis-Menten constant (Km) and maximum velocity (Vmax) for the lipase inhibition were determined by analyzing the intercepts on the x-axis and y-axis, respectively. […]

3T3-L1 cells [4] = test: MTT cell viability; assay type: cell-based; conditions: 72 h, mean ± SE (n = 3), ns
Protocol: Following incubation, each well received 10 μL of MTT solution (5 mg/mL), before a further 4 h of incubation at a temperature of 37°C. Then 100 μL of DMSO was added to dissolve the MTT-formazan crystals in the viable cells before measuring the absorbance at 540 nm.

Q: With glutathione as the compound, how does the “Mode of lipase inhibition” value (lipase) read?
A: non-competitive inhibition

Q: Which Triglyceride accumulation (3T3-L1 cells [1]) does the source give for “NPVWKRK [peptide from Spirulina platensis protein, pepsin digestion]” here?
A: potentially limiting triglyceride accumulation

Q: For “CANPHELPNK [peptide from Spirulina platensis protein, pepsin digestion]”, which Triglyceride accumulation (3T3-L1 cells [1]) is on record?
A: potentially limiting triglyceride accumulation

Q: Which Intracellular lipid accumulation (3T3-L1 cells [1]; 600 μg/mL, reduced) does the source give for “LLVVYPWTQR [synthetic decapeptide derived from C. pyenoidose]” here?
A: 27.91%

Q: With `CCC(C)(C)C(=O)O[C@H]1C[C@@H](C)C=C2C=C[C@H](C)[C@H](CC[C@@H]3C[C@@H](O)CC(=O)O3)[C@H]21` [Simvastatin, simvastatin] as the compound, how does the Lipid accumulation (3T3-L1 adipocytes) read?
A: 51.66 ± 1.81%

Q: What about the “AMPK expression, in words” value (AMPK-α) of the same compound?
A: AMPK expression level rose

Q: Which 3T3-L1 preadipocyte differentiation (3T3-L1 cells [1]) does the source give for “DIVDKIEI [peptide derived from extract of boiled tuna]” here?
A: effective in inhibiting 3T3-L1 preadipocyte differentiation

Q: And the “Triglyceride levels and glucose uptake” value (3T3-L1 cells [1])?
A: lowering both triglyceride levels and the uptake of glucose

Q: For GAGVGY [GAGVGY], which “Glucose transport and lipid metabolism” value (3T3-L1 cells [1]) is on record?
A: enhance the transport of glucose and support the lipid metabolism in 3T3-L1 adipocytes

Q: Which results are given for GRSPDTHSG?
A: IC50 [2]: 255 µM; Ki [3]: 610 ± 90 µM; Cell viability (3T3-L1 cells [4]; 0.25 mM): 97.02 ± 4.65%; Cell viability (3T3-L1 cells [4]; 0.50 mM): 92.90 ± 1.60%; Cell viability (3T3-L1 cells [4]; 1.00 mM): 85.96 ± 2.05%
